# Data: US20100168084A1, “Therapeutic compounds and related methods of use” (priority 2008, published 2010)
# Molecular target: T1, sirtuin protein (Homo sapiens, UniProt Q96EB6)
# T1 sequence (Q96EB6 2-747 limits assumed): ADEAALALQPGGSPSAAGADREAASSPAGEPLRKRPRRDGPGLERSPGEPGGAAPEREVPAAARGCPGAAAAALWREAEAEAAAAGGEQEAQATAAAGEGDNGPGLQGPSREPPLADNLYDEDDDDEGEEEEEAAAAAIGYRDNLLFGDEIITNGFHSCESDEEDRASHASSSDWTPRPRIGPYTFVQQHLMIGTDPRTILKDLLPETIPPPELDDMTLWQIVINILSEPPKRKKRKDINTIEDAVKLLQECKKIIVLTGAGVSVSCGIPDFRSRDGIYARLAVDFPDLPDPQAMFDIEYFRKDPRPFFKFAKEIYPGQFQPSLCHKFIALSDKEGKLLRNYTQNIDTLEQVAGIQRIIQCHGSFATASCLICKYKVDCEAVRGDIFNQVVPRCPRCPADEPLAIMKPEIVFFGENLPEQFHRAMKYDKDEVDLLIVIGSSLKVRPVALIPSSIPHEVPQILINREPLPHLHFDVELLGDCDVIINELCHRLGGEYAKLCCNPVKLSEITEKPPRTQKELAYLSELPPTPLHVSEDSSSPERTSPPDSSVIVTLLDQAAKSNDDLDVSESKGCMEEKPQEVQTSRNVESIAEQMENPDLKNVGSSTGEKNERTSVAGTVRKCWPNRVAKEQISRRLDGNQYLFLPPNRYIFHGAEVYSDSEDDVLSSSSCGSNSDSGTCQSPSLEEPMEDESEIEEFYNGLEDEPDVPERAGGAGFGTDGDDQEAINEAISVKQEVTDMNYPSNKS
# Test: MS assay (IC50 MS ASSAY / ED50 MS / FOLD ACTIVATION MS)
# Format: biochemical
# Design: scale not given here
# [1] = Table 4, class symbols, legend not given
# [2] = Table 4, class symbols A′, A, B, D, NA, legend not given
# [3] = MS assay, class symbols A′, A, B, D, NA, legend not given
ED50 MS ASSAY (TABLE 4),ED50 MS ASSAY (Table 4),ED50 MS ASSAY [1],"ED50 MS ASSAY (class symbols, no key given)",ED50 MS ASSAY [2],ED50 MS ASSAY [3],SMILES
A′,A′,A′,A′,,,COc1cc(C(=O)Nc2ccccc2-c2cn3cc(CN(C)C)sc3n2)cc(OC)c1OC [Compound 179]
A′,A′,A′,A′,,,COc1ccc(C(=O)Nc2cccc(-c3nc4cccnc4[nH]3)c2)c(OC)c1OC [Compound 181]
A′,A′,A′,A′,,,COc1ccc(C(=O)Nc2cccc(-c3nc4ncccc4[nH]3)c2)c(OC)c1 [Compound 184]
A′,A′,A′,A′,,,COc1ccc(C(=O)Nc2cccc(-c3nc4cccnc4[nH]3)c2)cc1OC [Compound 185]
A′,A′,A′,A′,,,CN(C)c1cccc(C(=O)Nc2cccc(-c3nc4ncccc4s3)c2)c1 [Compound 200]
A′,A′,A′,A′,,,COc1ccc(C(=O)Nc2cccc(-c3nc4ncccc4s3)c2)c(OC)c1 [Compound 202]
A′,A′,A′,A′,,,COc1cc(OC)cc(C(=O)Nc2cccc(-c3nc4cccnc4s3)c2)c1 [Compound 215]
A′,A′,A′,A′,,,COc1cc(C(=O)Nc2cccc(-c3nc4cccnc4s3)c2)cc(OC)c1OC [Compound 217]
,A′,,A′,A′,,COc1cc(C(=O)Nc2cccc(-c3cn4cccnc4n3)c2)cc(OC)c1OC [Compound 218]
,A′,,,A′,A′,COc1ccc(C(=O)Nc2cccc(-c3nc4ccccc4[nH]3)n2)cc1OC [Compound 260]
,A′,,,A′,A′,COc1ccc(C(=O)Nc2ccc(-c3nc4ccccc4[nH]3)cc2)c(OC)c1 [Compound 262]
,A′,,,A′,A′,COc1cc(C(=O)Nc2ccccc2-c2nc3ccccc3[nH]2)cc(OC)c1OC [Compound 293]
,A′,,,A′,A′,COc1ccc(C(=O)Nc2ccc(-c3nc4ccccc4[nH]3)cc2)cc1OC [Compound 294]
,A′,,,A′,A′,CN(C)c1ccc(C(=O)Nc2ccccc2-c2nc3cnccc3s2)cc1 [Compound 320]
,A′,,,A′,A′,COc1cc(C(=O)Nc2ccc(-c3nc4cnccc4o3)cc2)cc(OC)c1OC [Compound 347]

# Further lines, the compound ahead of its results:
SMILES,ED50 MS ASSAY (TABLE 4),ED50 MS ASSAY (Table 4),ED50 MS ASSAY [1],"ED50 MS ASSAY (class symbols, no key given)",ED50 MS ASSAY [2],ED50 MS ASSAY [3]
COc1cc(C)ccc1C(=O)Nc1cccc(-c2nc3cccnc3[nH]2)c1 [Compound 182],A′,A′,A′,A′,,
COc1ccc(C(=O)Nc2ccc(-c3cc4cccnc4o3)cc2)c(OC)c1 [Compound 190],A′,A′,A′,A′,,
COc1ccc(C(=O)Nc2cccc(-c3cc4cccnc4o3)c2)c(OC)c1 [Compound 191],A′,A′,A′,A′,,
COc1cc(C)ccc1C(=O)Nc1cccc(-c2nc3ncccc3s2)c1 [Compound 199],A′,A′,A′,A′,,
COc1ccc(C(=O)Nc2ccccc2-c2cn3ccsc3n2)cc1OC [Compound 203],A′,A′,A′,A′,,
COc1cc(C(=O)Nc2ccccc2-c2cn3ccsc3n2)cc(OC)c1OC [Compound 204],A′,A′,A′,A′,,
COc1ccc(C(=O)Nc2cccc(-c3nc4ccccc4[nH]3)c2)c(OC)c1 [Compound 211],A′,A′,A′,A′,,
COc1ccc(C(=O)Nc2cccc(-c3nc4cccnc4s3)c2)c(OC)c1 [Compound 213],A′,A′,A′,A′,,
COc1ccc(C(=O)Nc2cccc(-c3nc4cccnc4s3)c2)cc1 [Compound 216],A′,A′,A′,A′,,
COc1ccc(C(=O)Nc2ccccc2-c2cc3ccccc3[nH]2)cc1OC [Compound 254],,A′,,,A′,A′
COc1cc(C(=O)Nc2ccccc2-c2cc3ccccc3[nH]2)cc(OC)c1OC [Compound 255],,A′,,,A′,A′
COc1cc(C(=O)Nc2cccc(-c3nc4ccccc4[nH]3)n2)cc(OC)c1OC [Compound 259],,A′,,,A′,A′
COc1ccc(C(=O)Nc2ccccc2-c2cn3ccccc3n2)cc1OC [Compound 266],,A′,,,A′,A′
COc1cc(C(=O)Nc2ccccc2-c2cn3ccccc3n2)cc(OC)c1OC [Compound 267],,A′,,,A′,A′
CN(C)c1cccc(C(=O)Nc2ccccc2-c2cn3ccccc3n2)c1 [Compound 268],,A′,,,A′,A′
COc1cc(C(=O)Nc2ccccc2-c2cn3cc(CN4CCNCC4)sc3n2)cc(OC)c1OC [Compound 271],,A′,,,A′,A′
COc1ccc(C(=O)Nc2cccc(-c3nc4cnccc4s3)c2)c(OC)c1 [Compound 272],,A′,,,A′,A′
COc1ccc(C(=O)Nc2ncccc2-c2nc3ccccc3[nH]2)cc1OC [Compound 276],,A′,,,A′,A′
COc1ccc(C(=O)Nc2ccccc2-c2nc3cnccc3s2)c(OC)c1 [Compound 317],,A′,,,A′,A′
COc1cc(C(=O)Nc2ccccc2-c2nc3cnccc3s2)cc(OC)c1OC [Compound 319],,A′,,,A′,A′
CN(C)c1cccc(C(=O)Nc2ccccc2-c2nc3cnccc3s2)c1 [Compound 321],,A′,,,A′,A′
COc1cc(C(=O)Nc2ccc(-c3nc4ccncc4o3)cc2)cc(OC)c1OC [Compound 341],,A′,,,A′,A′
